Data as given in PMC6767919 (European journal of pharmacology, 2019).
Marks after values point to notes of the source that are not given here.

How the values were obtained:
5-HT2C receptor [1] = target: T1, 5-HT2C receptor (Homo sapiens, UniProt P28335); assay: Inverse agonist reduction of basal 5-HT2C-mediated IP production; assay type: cell-based; settings: CHO-K1 cells; basal 5-HT2C-mediated IP production after 20 h of vehicle; n = 3
T1 sequence (P28335 33-458): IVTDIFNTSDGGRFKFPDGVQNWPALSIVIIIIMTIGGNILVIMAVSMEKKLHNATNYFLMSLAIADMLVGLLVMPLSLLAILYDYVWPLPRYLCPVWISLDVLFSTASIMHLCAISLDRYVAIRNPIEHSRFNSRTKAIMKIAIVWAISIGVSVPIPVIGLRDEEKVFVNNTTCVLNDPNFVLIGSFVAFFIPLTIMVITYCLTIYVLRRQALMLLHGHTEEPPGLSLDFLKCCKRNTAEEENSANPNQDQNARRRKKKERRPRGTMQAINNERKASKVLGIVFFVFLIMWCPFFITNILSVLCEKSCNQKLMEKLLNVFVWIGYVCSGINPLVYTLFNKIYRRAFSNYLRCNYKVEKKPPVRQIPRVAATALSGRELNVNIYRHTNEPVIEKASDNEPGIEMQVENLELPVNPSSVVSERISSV

[2] = target: T2, human 5-HT2C–INI (wild-type, WT) receptor (Homo sapiens, UniProt P28335); assay type: cell-based
T2 sequence (P28335 33-458): T1 sequence (P28335 33-458)

5-HT2C-INI receptor = target: T3, 5-HT2C-INI receptor (Homo sapiens, UniProt P28335); assay: DiscoverX PathHunter β-arrestin recruitment to the 5-HT2C receptor; assay type: cell-based; settings: for Emax (% 5-HT), β-arrestin recruitment / pEC50, β-arrestin recruitment: U2OS cells stably expressing 5-HT2C-INI, agonist 2 h, n = 3
T3 sequence (P28335 33-458): T1 sequence (P28335 33-458)

5-HT2C receptor (WT) = target: T4, 5-HT2C receptor (WT) (Homo sapiens, UniProt P28335); assay type: cell-based
T4 sequence (P28335 33-458): T1 sequence (P28335 33-458)

[3] = Solubility in the desensitization assay; assay type: physicochemical
5-HT2C receptor [4] = target: T1, 5-HT2C receptor; assay: Effect of PKC inhibition on 5-HT-induced 5-HT2C receptor desensitization; settings: 10 μM chelerythrine; data not shown
PKC = settings: read-out: Ki for PKC; ref Herbert et al., 1990; Absolinova et al., 2010; cited from earlier work
5-HT2C receptor [5] = target: T1, 5-HT2C receptor; settings: ref Schlag et al., 2004; cited from earlier work
5-HT2C receptor [6] = target: T1, 5-HT2C receptor; assay: Inverse agonist sensitization of 5-HT2C receptor IP signaling; assay type: cell-based; settings: pretreatment for 8 h or less; data not shown

Question: For CN(C)[C@@H]1Cc2ccccc2[C@@H](c2cccc(C(F)(F)F)c2)C1 (relative stereo) [MFP, (2S,4R)-(−)-trans-4-(3’[meta]-trifluoromethylphenyl)-N,N-dimethyl-1,2,3,4-tetrahydronaphthalene-2-amine], which “Imax (% decrease from basal), inositol phosphate reduction” value (5-HT2C receptor [1]) is on record?
Answer: 25 ± 3 % decrease from basal

Question: What about the “pIC50, inositol phosphate reduction” value (5-HT2C receptor [1]) of the same compound?
Answer: 7.62 ± 0.10

Question: For CN(C)[C@@H]1Cc2ccccc2[C@@H](c2cccc(Br)c2)C1 (relative stereo) [MBP, (2S,4R)-(−)-trans-4-(3’[meta]-bromophenyl)-N,N-dimethyl-1,2,3,4-tetrahydronaphthalen-2-amine], which “Emax (% 5-HT), inositol phosphate production” value [2] is on record?
Answer: 73 ± 4^a % 5-HT

Question: What about the “agonist efficacy class relative to 5-HT, IP production” value [2] of the same compound?
Answer: partial agonists

Question: What about the “pEC50, inositol phosphate production” value [2] of the same compound?
Answer: 7.76 ± 0.04

Question: What about the “effect on 5-HT2C receptor β-arrestin recruitment (in words)” value (5-HT2C-INI receptor) of the same compound?
Answer: negligible effects

Question: What about the “Emax (% 5-HT), β-arrestin recruitment” value (5-HT2C-INI receptor) of the same compound?
Answer: 7 ± 4^a % 5-HT

Question: What about the “pEC50, β-arrestin recruitment” value (5-HT2C-INI receptor) of the same compound?
Answer: 6.84 ± 0.10^a

Question: What does the source list for COc1cc(CC(C)N)c(OC)cc1I (racemic) [DOI, (±) 2,5-dimethoxy-4-iodoamphetamine]?
Answer: Emax (% 5-HT), inositol phosphate production [2]: 82 ± 4 % 5-HT; agonist efficacy class relative to 5-HT, IP production [2]: full agonists; pEC50, inositol phosphate production [2]: 8.32 ± 0.10

Question: Which results are given for C[C@H](N)Cn1ccc2cc(F)c(Cl)cc21 [Ro 60–0175]?
Answer: Emax (% 5-HT), inositol phosphate production [2]: 99 ± 6 % 5-HT; agonist efficacy class relative to 5-HT, IP production [2]: full agonists; pEC50, inositol phosphate production [2]: 8.30 ± 0.05; Emax (% 5-HT), β-arrestin recruitment (5-HT2C-INI receptor): 92 ± 4 % 5-HT; pEC50, β-arrestin recruitment (5-HT2C-INI receptor): 7.86 ± 0.11

Question: With C[C@H]1CNCCc2ccc(Cl)cc21 [lorcaserin] as the compound, how does the “Emax (% 5-HT), inositol phosphate production” value [2] read?
Answer: 100 ± 1 % 5-HT

Question: And the “Emax (% 5-HT), β-arrestin recruitment” value (5-HT2C-INI receptor)?
Answer: 118 ± 5^a % 5-HT

Question: For O=C1CCc2ccc(OCCCCN3CCN(c4cccc(Cl)c4Cl)CC3)cc2N1 [aripiprazole], which “Emax (% 5-HT), inositol phosphate production” value [2] is on record?
Answer: 40 ± 4^a % 5-HT

Question: What about the “desensitization of 5-HT2C-PLC signaling (in words)” value (5-HT2C receptor (WT)) of the same compound?
Answer: did not desensitize

Question: What about the “effect on 5-HT2C receptor β-arrestin recruitment (in words)” value (5-HT2C-INI receptor) of the same compound?
Answer: negligible effects

Question: What about the “Emax (% 5-HT), β-arrestin recruitment” value (5-HT2C-INI receptor) of the same compound?
Answer: 8 ± 1^a % 5-HT

Question: What about the “solubility in the desensitization assay” value [3] of the same compound?
Answer: low solubility

Question: Which “Imax (% decrease from basal), inositol phosphate reduction” value (5-HT2C receptor [1]) does the source give for CN1C[C@@H](NS(=O)(=O)N(C)C)C[C@@H]2c3cccc4c3c(cn4C)C[C@H]21 [mesulergine] here?
Answer: 17 ± 2 % decrease from basal

Question: For COc1ccc2c(c[n+](C)c3c4cc5c(cc4ccc23)OCO5)c1OC [chelerythrine], which “effect of chelerythrine on 5-HT-induced IP production in non-desensitized cells” value (5-HT2C receptor [4]) is on record?
Answer: no effect

Question: And the Ki (PKC)?
Answer: 700 nM

Question: With CN(C)[C@@H]1Cc2ccccc2[C@@H](C2CCCCC2)C1 (relative stereo) [CAT, (2S,4R)-(−)-trans-4-cyclohexyl-N,N-dimethyl-1,2,3,4-tetrahydronaphthalen-2-amine] as the compound, how does the “Imax (% decrease from basal), inositol phosphate reduction” value (5-HT2C receptor [1]) read?
Answer: 26 ± 4 % decrease from basal

Question: And the “pIC50, inositol phosphate reduction” value (5-HT2C receptor [1])?
Answer: 7.17 ± 0.21

Question: With O=C1Nc2cc(Cl)c(Cl)cc2N2CCNCC12 (stereo not drawn) [WAY-161503] as the compound, how does the “Emax (% 5-HT), inositol phosphate production” value [2] read?
Answer: 100 ± 2 % 5-HT

Question: What about the “agonist efficacy class relative to 5-HT, IP production” value [2] of the same compound?
Answer: full agonists

Question: What about the “pEC50, inositol phosphate production” value [2] of the same compound?
Answer: 8.07 ± 0.08

Question: Which “Emax (% 5-HT), inositol phosphate production” value [2] does the source give for Clc1cccc(N2CCNCC2)c1 [mCPP, 1-(3-chlorophenyl)piperazine] here?
Answer: 88 ± 10 % 5-HT

Question: With Cn1ccc2cc3c(cc21)CCN3C(=O)Nc1cccnc1 [SB 206553] as the compound, how does the “sensitization of 5-HT2C receptors after 30 min pretreatment” value (5-HT2C receptor [5]) read?
Answer: insufficient to sensitize

Question: What about the “Imax (% decrease from basal), inositol phosphate reduction” value (5-HT2C receptor [1]) of the same compound?
Answer: 32 ± 5 % decrease from basal

Question: And the “sensitization of the 5-HT2C receptor after short pretreatment” value (5-HT2C receptor [6])?
Answer: does not sensitize

Question: For CN(C)[C@@H]1Cc2ccccc2[C@@H](c2ccccc2)C1 (relative stereo) [PAT, (2S,4R)-(−)-trans-4-phenyl-N,N-dimethyl-1,2,3,4-tetrahydronaphthalen-2-amine], which “Emax (% 5-HT), inositol phosphate production” value [2] is on record?
Answer: 50 ± 1^a % 5-HT
